Assay results as given in US20230322735A1, “AZETIDINYL TRYPTAMINES AND METHODS OF TREATING PSYCHIATRIC DISORDERS” (priority 2020, published 2023).

How the values were obtained:
5-HT2B receptor = biological target: T1, 5-HT2B receptor (Homo sapiens, UniProt P41595); assay: FLIPR Ca2+ flux agonist assay at 5-HT2B (HEK293); type: cell-based
T1 construct: host or cells: HEK293
Procedure: A solution of 250 mM probenecid in 1 mL FLIPR assay buffer was prepared fresh. This was combined with a fluorescent dye (Fluo-4 Direct™) to make a final assay concentration of 2.5 mM. […] The fluorescent dye was then added to the assay plate along with assay buffer to a final volume of 40 μL. The cell plate was incubated for 50 min at 37° C. and 5% CO2 and placed into the FLIPR Tetra along with the compound plate. 10 μL of references and compounds were then transferred from the compound plate into the cell plate and the fluorescent signal was read.

C57BL/6 mice = assay: Head twitch response (HTR) in mice; type: in vivo, mouse; conditions: SC
Sprague Dawley rats = assay: Forced swim test (FST) in rats; type: in vivo, rat; conditions: SC
Procedure: These effects on swimming were stronger than those induced by the control antidepressant desipramine.
Animals. Male Sprague Dawley rats, aged 8-10 weeks, were used in the experiments. Animals were housed in groups of 2 under controlled temperature (22±3° C.) and relative humidity (30-70%) conditions, with 12-hour light/dark cycles, and with ad libitum food and water. These studies were carried out in strict accordance with the requirements of the Committee for the Purpose of Control and Supervision of Experiments on Animals (CPCSEA), India. All efforts were made to minimize suffering.
Drugs and Drug Administration. Compound 2 was prepared as described above. All other compounds were commercially obtained. Test compounds, saline vehicle, and the positive control desipramine were administered subcutaneously (SC), with doses calculated based on the free base. […] All compounds were administered at a volume of 5 mL/kg. Test compounds and vehicle were administered 0.5 h after the start of the training swim (Swim 1) and 23.5 h before the test swim (Swim 2). Desipramine was administered 3 times, at 23.5 h, 5 h, and 1 h before the test swim (Swim 2), each time at a dose of 20 mg/kg.
Forced Swim Test (FST). […] Group size was N=10 per treatment, except for the vehicle and desipramine groups, which were N=20. Rats were handled for about 2 min daily for the 5 days prior to the beginning of the experimental procedure. On the first day of the experiment (i.e., Day 0), post randomization, training swim sessions (Swim 1) were conducted between 12:00 and 18:00 h with all animals by placing rats in individual glass cylinders (46 cm tall×20 cm in diameter) containing 23-25° C. water 30 cm deep for 15 minutes. At the conclusion of Swim 1, animals were dried with paper towels, placed in heated drying cages for 15 minutes, and then returned to their home cages. […]
Behavioral scoring was conducted by observers who were blind to the treatment groups. Animals were continuously observed during Swim 2 and the total time spent engaging in the following behaviors was recorded: immobile, swimming, and climbing. […]

[1] = Chemical stability of the product on storage and analysis; type: physicochemical
Procedure: Note: The product 2 is unstable and should be stored frozen, protected from light, and under inert gas. If stored properly, stability has been confirmed by qNMR for at least 1 month.
A mixture of 3-(2-(azetidin-1-yl)ethyl)-1H-indol-4-ol (2, 50 mg, 231.18 μmol, 1 eq) and pyridine (23.77 mg, 300.54 μmol, 24.26 μL, 1.3 eq) in DCM (1 mL) was cooled to 0° C. Then acetic anhydride (25.96 mg, 254.30 μmol, 23.82 μL, 1.1 eq) was added dropwise at 0° C. and the resulting mixture was stirred at 25° C. for 1 h. At this time, the solvent was removed and the residue was purified by prep-HPLC (column=Waters Xbridge BEH C18 (100*30 mm, 10 μm); mobile phase=water(NH4HCO3)-ACN, B %=5%-40%; 10 min run time) to provide 3-(2-(azetidin-1-yl)ethyl)-1H-indol-4-yl acetate (4) as a white solid (20 mg, 33% yield). ^1H NMR (400 MHz, DMSO-d6) δ 11.01 (br s, 1H), 7.22 (d, J=8.0 Hz, 1H), 7.11 (d, J=1.6 Hz, 1H), 7.02 (t, J=8.0 Hz, 1H), 6.64 (d, J=7.6 Hz, 1H), 3.09 (t, J=6.8 Hz, 4H), 2.57-2.54 (m, 4H), 2.32 (s, 3H), 1.96-1.90 (m, 2H); LCMS (RT=0.983 min, MS calc.: 258.14, [M+H]+=259.1).

[2] = Stability in rat brain homogenate
[3] = Stability in mouse brain homogenate
[4] = Metabolic stability in human liver microsomes (HLM)
[5] = single dose 23.5 h before test swim, vs vehicle
[6] = both, human, pooled human liver microsomes, pH 7.4

T1 sequence (P41595 whole entry): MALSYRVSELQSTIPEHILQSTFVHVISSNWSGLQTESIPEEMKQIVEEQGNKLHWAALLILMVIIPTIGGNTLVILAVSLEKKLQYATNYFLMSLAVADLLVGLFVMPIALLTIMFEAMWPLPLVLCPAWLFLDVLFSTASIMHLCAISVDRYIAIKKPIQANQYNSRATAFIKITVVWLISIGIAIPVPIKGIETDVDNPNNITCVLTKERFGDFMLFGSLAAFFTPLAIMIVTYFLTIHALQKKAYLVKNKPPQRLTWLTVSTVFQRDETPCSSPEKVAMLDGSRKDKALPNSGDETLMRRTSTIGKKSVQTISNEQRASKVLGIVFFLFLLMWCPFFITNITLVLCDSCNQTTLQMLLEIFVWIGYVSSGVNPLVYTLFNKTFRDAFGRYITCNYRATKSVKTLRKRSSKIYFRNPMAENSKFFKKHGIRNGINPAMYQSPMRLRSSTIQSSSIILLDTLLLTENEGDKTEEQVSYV

Oc1cccc2[nH]cc(CCN3CCC3)c12 [Compound 2, 3-(2-(azetidin-1-yl)ethyl)-1H-indol-4-ol]
EC50 (5-HT2B receptor): > 10 µM | 5-HT2B % Act @ Max Dose (5-HT2B receptor; Ca2+ flux, agonist mode, HEK293): 3.83% | Average HTR Over 20-min Test (C57BL/6 mice; dose 0.1 mg/kg): 4.667 | Average HTR Over 20-min Test (C57BL/6 mice; dose 1 mg/kg): 8.667 | Average HTR Over 20-min Test (C57BL/6 mice; dose 10 mg/kg): 9.000 | dose with significant effect on immobility in the FST (Sprague Dawley rats; 23.5 h pre-treatment, lowest dose tested): ≤ 0.1 mg/kg | immobility time in the FST (Sprague Dawley rats; [5]): reduced immobility time | swimming time in the FST (Sprague Dawley rats; [5]): significant increases in swimming | stability of the product (in words) ([1]; storage): unstable | time for which stability was confirmed by qNMR ([1]; stored frozen, protected from light, under inert gas): at least 1 month | stability in rat brain homogenate (in words) [2]: good stability | half-life at 1 μM ([2]; male, Sprague Dawley, rat, rat brain homogenate): 2.91 h | % Compound Remaining (after 120 min) ([2]; rat brain homogenate (male Sprague Dawley), 1 μM, 37° C., 120 min): 56.8% | stability in mouse brain homogenate (in words) [3]: good stability | half-life at 1 μM ([3]; male, CD-1, mouse, mouse brain homogenate): > 4.82 h | % Compound Remaining (after 120 min) ([3]; mouse brain homogenate (male CD-1), 1 μM, 37° C., 120 min): 74.2% | half-life at 1 μM [4, 6]: > 2.42 h | microsomal CLint at 1 μM [4, 6]: < 9.6 µL/min/mg | metabolic stability in HLM compared with dimethyl counterpart ([4]; vs DMT, psilocin, 5-MeO-DMT respectively): greater metabolic stability
